Experimental data as given in patent publication US12043599B2, “Herbicidal compounds” (SYNGENTA PARTICIPATIONS AG, priority 2018, dated 2024).

What was measured:
Type in all cases: in vivo
Settings in all cases: 250 g/h, evaluated after 13 days
[1] = tested on: Alopecurus myosuroides (ALOMY); experiment: Pre-emergence herbicidal glasshouse test, percentage damage
Outline: (§1)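 Damage assessed 13 days after treatment and expressed as a five-point score (5=80-100%; 4=60-79%; 3=40-59%; 2=20-39%; 1=0-19%). Compound applied at 250 g/h as an acetone/water/0.5% Tween 20 spray, pre-emergence (day 1 after sowing) or post-emergence (day 8). Plants kept at 24/16° C., 14 h light, 65% humidity.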

[2] = tested on: Avena fatua (AVEFA); experiment: as above
Outline: as §1

[3] = tested on: Echinochloa crus-galli (ECHCG); experiment: as above
Outline: as §1

[4] = tested on: Lolium perenne (LOLPE); experiment: as above
Outline: as §1

[5] = tested on: Setaria faberi (SETFA); experiment: as above
Outline: as §1

[6] = tested on: Setaria faberi (SETFA); experiment: Post-emergence herbicidal glasshouse test, percentage damage
Outline: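 Percentage damage was scored 13 days after treatment on a five-point scale (1=0-19% to 5=80-100%). Treatments were post-emergence sprays on 8-day-old wheat, barley and SETFA plants in a glasshouse (24/16 °C day/night, 14 h light, 65% humidity), using acetone/water 50:50 with 0.5% Tween 20 at the stated rates. Wheat additionally received cloquintocet-mexyl safener at 50 g/ha.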

[7] = tested on: Alopecurus myosuroides (ALOMY); experiment: as above
Outline: as §1

[8] = tested on: Avena fatua (AVEFA); experiment: as above
Outline: as §1

[9] = tested on: Lolium perenne (LOLPE); experiment: as above
Outline: as §1

[10] = tested on: Echinochloa crus-galli (ECHCG); experiment: as above
Outline: as §1

Row | SMILES | ALOMY PRE percentage damage (five point scale) [1] | AVEFA PRE percentage damage (five point scale) [2] | ECHCG PRE percentage damage (five point scale) [3] | LOLPE PRE percentage damage (five point scale) [4] | SETFA PRE percentage damage (five point scale) [5] | SETFA POST percentage damage (five point scale) [6] | ALOMY POST percentage damage (five point scale) [7] | AVEFA POST percentage damage (five point scale) [8] | LOLPE POST percentage damage (five point scale) [9] | ECHCG POST percentage damage (five point scale) [10]
1 | CC#Cc1cc(C)c(C2=C(OC(=O)OC)CC3(CCN(S(=O)(=O)c4ccccn4)CC3)CC2=O)c(C)c1 [Compound P34] | 5 (5=80-100%) | 5 (5=80-100%) | 5 (5=80-100%) | 5 (5=80-100%) | 5 (5=80-100%) | 5 (5=80-100%) | 5 (5=80-100%) | 5 (5=80-100%) | 5 (5=80-100%) | 
2 | CC#Cc1cc(C)c(C2C(=O)CC3(CCN(C(=O)c4nc(OC)n(C)n4)CC3)CC2=O)c(C)c1 [Compound A105] | 5 (5=80-100%) | 5 (5=80-100%) | 5 (5=80-100%) | 5 (5=80-100%) | 5 (5=80-100%) | 5 (5=80-100%) |  | 5 (5=80-100%) | 5 (5=80-100%) | 3 (3=40-59%)
3 | CC#Cc1cc(C)c(C2=C(OC(=O)OC)CC3(CCN(C(=O)c4ccncn4)CC3)CC2=O)c(C)c1 [Compound P37] | 5 (5=80-100%) | 5 (5=80-100%) | 5 (5=80-100%) | 5 (5=80-100%) | 5 (5=80-100%) | 5 (5=80-100%) |  | 5 (5=80-100%) | 5 (5=80-100%) | 5 (5=80-100%)
4 | CC#Cc1cc(C)c(C2C(=O)CC3(CCN(C(=O)NC(=O)c4ccccn4)CC3)CC2=O)c(OC)c1 [Compound A79] | 4 (4=60-79%) | 5 (5=80-100%) | 4 (4=60-79%) | 5 (5=80-100%) | 4 (4=60-79%) | 5 (5=80-100%) | 5 (5=80-100%) | 5 (5=80-100%) | 5 (5=80-100%) | 
5 | CC#Cc1cc(C)c(C2C(=O)CC3(CCN(c4cncnc4)CC3)CC2=O)c(C)c1 [Compound A87] | 4 (4=60-79%) | 3 (3=40-59%) | 5 (5=80-100%) | 5 (5=80-100%) | 5 (5=80-100%) | 5 (5=80-100%) | 5 (5=80-100%) | 5 (5=80-100%) | 5 (5=80-100%) | 
6 | CC#Cc1cc(C)c(C2=C(OC(=O)OC)CC3(CCN(C(=O)CC#N)CC3)CC2=O)c(C)c1 [Compound P43] | 5 (5=80-100%) | 5 (5=80-100%) | 5 (5=80-100%) | 5 (5=80-100%) | 5 (5=80-100%) | 5 (5=80-100%) |  | 5 (5=80-100%) | 5 (5=80-100%) | 4 (4=60-79%)
7 | CC#Cc1cc(C)c(C2=C(OC(=O)OC)CC3(CCN(C(=O)c4cccnc4)CC3)CC2=O)c(C)c1 [Compound P35] | 5 (5=80-100%) | 5 (5=80-100%) | 5 (5=80-100%) | 5 (5=80-100%) | 5 (5=80-100%) | 5 (5=80-100%) |  | 5 (5=80-100%) | 5 (5=80-100%) | 5 (5=80-100%)
8 | CC#Cc1cc(C)c(C2=C(OC(C)=O)CC3(CCN(C(=O)CC#N)CC3)CC2=O)c(C)c1 [Compound P41] | 5 (5=80-100%) | 5 (5=80-100%) | 5 (5=80-100%) | 5 (5=80-100%) | 5 (5=80-100%) | 5 (5=80-100%) |  | 5 (5=80-100%) | 5 (5=80-100%) | 5 (5=80-100%)
9 | CC#Cc1cc(C)c(C2=C(OC(=O)OC)CC3(CCN(C(=O)C4CCOCC4)CC3)CC2=O)c(C)c1 [Compound P40] | 5 (5=80-100%) | 5 (5=80-100%) | 5 (5=80-100%) | 5 (5=80-100%) | 5 (5=80-100%) | 5 (5=80-100%) |  | 5 (5=80-100%) | 5 (5=80-100%) | 5 (5=80-100%)
10 | CC#Cc1cc(C)c(C2=C(OC(=O)OC)CC3(CCN(C(=O)c4cnccn4)CC3)CC2=O)c(C)c1 [Compound P38] | 5 (5=80-100%) | 5 (5=80-100%) | 5 (5=80-100%) | 5 (5=80-100%) | 5 (5=80-100%) | 5 (5=80-100%) |  | 5 (5=80-100%) | 5 (5=80-100%) | 5 (5=80-100%)
11 | CC#Cc1cc(C)c(C2=C(OC(=O)OC)CC3(CCN(C(=O)C4CC4)CC3)CC2=O)c(C)c1 [Compound P42] | 5 (5=80-100%) | 5 (5=80-100%) | 5 (5=80-100%) | 5 (5=80-100%) | 5 (5=80-100%) | 5 (5=80-100%) |  | 5 (5=80-100%) | 5 (5=80-100%) | 5 (5=80-100%)
12 | CC#Cc1cc(C)c(C2=C(OC(=O)OC)CC3(CCN(C(=O)C4COC4)CC3)CC2=O)c(C)c1 [Compound P44] | 5 (5=80-100%) | 5 (5=80-100%) | 5 (5=80-100%) | 5 (5=80-100%) | 5 (5=80-100%) | 5 (5=80-100%) |  | 5 (5=80-100%) | 5 (5=80-100%) | 5 (5=80-100%)
